# Patent publication US10881110B2, “Herbicidal compositions comprising isoxazolo[5,4-b]pyridines” (BASF SE, priority 2014, dated 2021)
# Legend:
# Experiment in all cases: greenhouse post-emergence herbicidal test
# [1] = test system: LAMAM; assay type: in vivo, Lamium amplexicaule; details: B.87 (carfentrazone-ethyl) 1.75 g/ha, alone or as mixture (composition 1.87)
# Experimental: (§1) The culture containers used were plastic pots containing medium loamy sand with approximately 4.6% of humus and 69.9% sand as substrate. The seeds of the test plants were sown separately for each species.
# (§2) For the post-emergence treatment, the test plants were grown to a plant height of from 1 to 15 cm, depending on the plant habit, and only then treated with the active compounds which had been suspended or emulsified in water. To this end, the test plants were either sown directly, and grown in the same containers, or they were first grown separately as seedlings and transplanted into the test containers a few days prior to treatment.
# (§3) Depending on the species, the plants were kept at 10-25° C. and 20-35° C., respectively.
# (§4) The test period extended over 1 to 3 weeks. During this time, the plants were tended and their response to the individual treatments was evaluated 20 days after treatment except mentioned otherwise.
# (§5) Evaluation was carried out using a scale from 0 to 100. 100 means no emergence of the plants, or complete destruction of at least the above-ground parts, and 0 means no damage or normal course of growth.
# (§6) The respective stated components A and B, and, if appropriate, C, were formulated as a 10% by weight strength emulsion concentrate and, with addition of the amount of solvent system, introduced into the spray liquor used for applying the active compound. In the examples, the solvent used was water.
# (§7) In the examples below, using the method of S. R. Colby (1967) “Calculating synergistic and antagonistic responses of herbicide combinations”, Weeds 15, p. 22 ff., the value E, which is expected if the activity of the individual active compounds is only additive, was calculated. E=X+Y−(X·Y/100)
# [2] = test system: MATCH; assay type: in vivo, Matricaria recutita; details: post emergence, B.87 (carfentrazone-ethyl) 1.75 g/ha, alone or as mixture (composition 1.87)
# Summary of the method: (§8)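 Post-emergence greenhouse test: plants in loamy sand, sprayed at 1–15 cm height with aqueous spray liquor from 10% emulsion concentrates, kept at 10-25 °C or 20-35 °C by species. Damage scored 0–100 (100 = complete destruction), usually 20 days after treatment. Expected additive effect E from Colby: E=X+Y−(X·Y/100).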
# [3] = test system: GERPU; assay type: in vivo, Geranium pusillum; details: application rate a.i.: I.1 31.25 g/ha, B.87 (carfentrazone-ethyl) 1.75 g/ha, alone or as mixture (composition 1.87)
# Experimental: as §1, §2, §3, §4, §5, §6, §7
# [4] = test system: PAPRH; assay type: in vivo, Papaver rhoeas; details: application rate a.i.: I.1 62.5 g/ha, B.87 (carfentrazone-ethyl) 1.75 g/ha, alone or as mixture (composition 1.87)
# Summary of the method: as §8
# [5] = test system: SEBEX; assay type: in vivo, Sesbania exaltata; details: application rate a.i.: I.1 31.25 g/ha, B.87 (carfentrazone-ethyl) 1.75 g/ha, alone or as mixture (composition 1.87)
# Experimental: as §1, §2, §3, §4, §5, §6, §7
# [6] = test system: GERDI; assay type: in vivo, Geranium dissectum; details: post emergence; application rate a.i.: I.1 62.5 g/ha, B.87 (carfentrazone-ethyl) 1.75 g/ha, alone or as mixture (composition 1.87)
# Summary of the method: as §8
# [7] = test system: SASKR; assay type: in vivo, Salsola kali; design: key: scale 0 to 100; details: 6 days after treatment, g/ha a.i.: I.1 62.5, B.96 140, mixture 62.5+140
# Experimental: as §1, §2, §3, §4, §5, §6, §7
# [8] = test system: POLPE; assay type: in vivo, Persicaria maculosa; design: key: scale 0 to 100; details: 6 days after treatment, g/ha a.i.: I.1 31.25, B.96 35, mixture 31.25+35
# Experimental: as §1, §2, §3, §4, §5, §6, §7
# [9] = test system: IPOHE; assay type: in vivo, Ipomoea hederacea; design: key to herbicidal activity against IPOHE found: rating on a scale from 0 to 100; details: post emergence, 6 days after treatment
# Summary of the method: (§9)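 Herbicidal activity scored on a 0 (no damage) to 100 (plants destroyed) scale, usually 20 days after water-based spraying of 1–15 cm plants grown in loamy sand at 10-25 °C or 20-35 °C depending on species. Components were applied from 10% emulsion concentrates; Colby's E=X+Y−(X·Y/100) gives the additive expectation.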
# [10] = test system: GALAP; assay type: in vivo, Galium aparine; design: key to herbicidal activity against GALAP found: rating on a scale from 0 to 100; details: post emergence, 6 days after treatment, g/ha a.i.: I.1 62.5
# Summary of the method: as §9
# [11] = test system: VIOAR; assay type: in vivo, Viola arvensis; design: key to herbicidal activity against VIOAR found / herbicidal activity against VIOLA found: rating on a scale from 0 to 100; details: post emergence, 6 days after treatment
# Summary of the method: as §9
# [12] = test system: STEME; assay type: in vivo, Stellaria media; design: key: scale 0 to 100; details: 6 days after treatment, g/ha a.i.: I.1 31.25, B.96 35, mixture 31.25+35
# Summary of the method: as §8
# [13] = test system: POLAV; assay type: in vivo, Polygonum aviculare; design: key: rating on a scale from 0 to 100; details: 6 days after treatment
# Experimental: as §1, §2, §3, §4, §5, §6, §7
# [14] = test system: POLCO; assay type: in vivo, Polygonum convolvulus; design: key to herbicidal activity against POLCO found: rating on a scale from 0 to 100; details: post emergence, 6 days after treatment
# Summary of the method: as §9
# [15] = test system: CONAR; assay type: in vivo, Convolvulus arvensis; design: key: rating on a scale from 0 to 100; details: 6 days after treatment, g/ha a.i.: I.1 62.5, B.96 140, mixture 62.5+140
# Summary of the method: as §8
# [16] = test system: ABUTH; assay type: in vivo, Abutilon theophrast; design: key to herbicidal activity against ABUTH found: rating on a scale from 0 to 100; details: post emergence, 6 days after treatment, g/ha a.i.: I.1 31.25
# Summary of the method: as §8
# [17] = test system: KCHSC; assay type: in vivo, Kochia scoparia; design: key to herbicidal activity against KCHSC found: rating on a scale from 0 to 100; details: post emergence, 6 days after treatment
# Summary of the method: as §9
# [18] = test system: SORVU; assay type: in vivo; details: 6 days after treatment, g/ha a.i.: I.1 31.25, B.96 140, mixture 31.25+140
# [19] = application rate a.i.: I.1 31.25 g/ha
# [20] = application rate a.i.: I.1 62.5 g/ha
# [21] = g/ha a.i.: I.1 31.25, B.96 35, mixture 31.25+35
# [22] = g/ha a.i.: I.1 31.25, B.96 70, mixture 31.25+70
# [23] = g/ha a.i.: I.1 31.25, B.96 140, mixture 31.25+140
# [24] = g/ha a.i.: I.1 62.5, B.96 140, mixture 62.5+140
# [25] = g/ha a.i.: I.1 62.5, B.96 35, mixture 62.5+35
# [26] = g/ha a.i.: I.1 62.5, B.96 70, mixture 62.5+70
smiles,measurement,setting,value
"CCOC(=O)C(Cl)Cc1cc(-n2nc(C)n(C(F)F)c2=O)c(F)cc1Cl (centres unmarked) [B.87, carfentrazone-ethyl]","herbicidal activity against LALAM, found",[1]; [19],80
same,"herbicidal activity against LAMAM, found",[1]; [20],80
same,herbicidal activity against MATCH found,[2]; [19],75
same,herbicidal activity against MATCH found,[2]; [20],75
same,"herbicidal activity against GERPU, found",[3],75
same,herbicidal activity against PAPRH found,[4],30
same,"herbicidal activity against SEBEX, found",[5],75
same,herbicidal activity against GERDI found,[6],70
"CS(=O)(=O)c1ccc(C(=O)C2=C(Sc3ccccc3)C3CCC(C3)C2=O)c(Cl)c1 (centres unmarked) [B.96, benzobicyclon]",herbicidal activity against SASKR found,[7],65
same,herbicidal activity against POLPE found,[8],85
same,herbicidal activity against IPOHE found,[9]; [21],70
same,herbicidal activity against IPOHE found,[9]; [22],70
same,herbicidal activity against IPOHE found,[9]; [23],70
same,herbicidal activity against IPOHE found,[9]; [24],70
same,herbicidal activity against GALAP found,"[10]; B.96 70, mixture 62.5+70",75
same,herbicidal activity against GALAP found,"[10]; B.96 140, mixture 62.5+140",80
same,herbicidal activity against VIOAR found,[11]; [21],65
same,herbicidal activity against VIOAR found,[11]; [22],65
same,herbicidal activity against VIOAR found,[11]; [23],65
same,herbicidal activity against VIOAR found,[11]; [25],65
same,herbicidal activity against VIOAR found,[11]; [26],65
same,herbicidal activity against VIOAR found,[11]; [24],65
same,herbicidal activity against STEME found,[12],85
same,herbicidal activity against POLAV found,[13]; [26],70
same,herbicidal activity against POLAV found,[13]; [24],70
same,herbicidal activity against POLCO found,[14]; [22],70
same,herbicidal activity against POLCO found,[14]; [23],80
same,herbicidal activity against POLCO found,[14]; [26],70
same,herbicidal activity against POLCO found,[14]; [24],80
same,herbicidal activity against CONAR found,[15],75
same,herbicidal activity against ABUTH found,"[16]; B.96 35, mixture 31.25+35",80
same,herbicidal activity against ABUTH found,"[16]; B.96 70, mixture 31.25+70",85
same,herbicidal activity against KCHSC found,[17]; [21],35
same,herbicidal activity against KCHSC found,[17]; [22],40
same,herbicidal activity against KCHSC found,[17]; [23],55
same,herbicidal activity against KCHSC found,[17]; [25],35
same,herbicidal activity against KCHSC found,[17]; [26],40
same,herbicidal activity against SORVU found,[18],60
